Assay results from US20110275670A1, “New Compounds VII” (priority 2008, published 2011).

How the values were obtained:
[1] = test system: JEG-3 cells; experiment: JEG-3 protocol: [3H]-thymidine incorporation (leptin assay in non-recombinant system); type: cell-based; details: FIG. 4
Protocol: In JEG-3 cells (choriocarcinoma cell line) leptin is able to stimulate proliferation up to 3 fold (Biol. Reprod. (2007) 76: 203-10). […] The radioactivity incorporated by the cells is an index of their proliferative activity and is measured in counts per minute (CPM) with a liquid scintillation beta counter.
This finding can be applied to test whether a compound is able to either reproduce the effect of leptin on cell proliferation (leptin receptor agonist mimetic) (i.e., a given compound will cause an increase in incorporated [^3H]-Thymidine by the cells) or to inhibit the effect of leptin (antagonistic effect) by preventing the leptin-mediated increase in [^3H]-thymidine incorporation.
This approach has the advantage of using a non-recombinant system and has reasonable reproducibility and robustness.

[2] = test system: JEG-3 cells; details: Biol. Reprod. (2007) 76: 203-10; cited from earlier work

## Leptin: a hormone synthesized in fat cells that is believed to act in the hypothesis to reduce food intake and body weight
[1]; JEG-3 cells (choriocarcinoma cell line), read-out: EC50, concentration-dependent increase in [3H]-thymidine incorporation
  EC50: 2.1 nM
[1]; JEG-3 cells
  concentration of maximal effect on [3H]-thymidine incorporation: 100 nM
[2]
  stimulation of proliferation: up to 3 fold
